Test results as given in ChEMBL document CHEMBL5724914, “Linking interpersonal differences in gut microbiota composition and drug biotransformation activity” (2024).

Legend:
[1] = (§1) The drug is tested on Z-024 corresponding to pig gut metagenome with ENA study accession number: PRJEB37062 and ENA sample accession number: ERS12561823 for biotransformation under anaerobic condition. The drug concentrations were measured over 9 timepoints collected between 0 and 24 hours of incubation by liquid-chromatography-coupled mass spectrometry (LC–MS); settings: 2 µM
[2] = as §1, with “Z-009” for “Z-024”, “ERS12561809” for “ERS12561823”; settings: 2 µM
[3] = as §1, with “Z-005” for “Z-024”, “to” for “to pig gut”, “ERS12561805” for “ERS12561823”; settings: 2 µM
[4] = as §1, with “Z-004” for “Z-024”, “to” for “to pig gut”, “ERS12561804” for “ERS12561823”; settings: 2 µM
[5] = as §1, with “WLS-086” for “Z-024”, “human” for “pig”, “ERS12561752” for “ERS12561823”; settings: 2 µM
[6] = as §1, with “WLS-082” for “Z-024”, “human” for “pig”, “ERS12561751” for “ERS12561823”; settings: 2 µM
[7] = as §1, with “WLS-069” for “Z-024”, “human” for “pig”, “ERS12561748” for “ERS12561823”; settings: 2 µM
[8] = as §1, with “WLS-010” for “Z-024”, “human” for “pig”, “ERS12561743” for “ERS12561823”; settings: 2 µM
[9] = human gut metagenome, 24 h, 2 µM
[10] = human gut metagenome, 24 h, 2 µM; remark: listed apart in the source
[11] = human gut metagenome, 24 h, 2 µM; remark: listed apart in the source
[12] = human gut metagenome, 24 h, 2 µM; remark: listed apart in the source
[13] = human gut metagenome, 24 h, 2 µM; remark: listed apart in the source
[14] = human gut metagenome, 24 h, 2 µM; remark: listed apart in the source
[15] = human gut metagenome, 24 h, 2 µM; remark: listed apart in the source
[16] = human gut metagenome, 24 h, 2 µM; remark: listed apart in the source
[17] = human gut metagenome, 24 h, 2 µM; remark: listed apart in the source
[18] = as §1, with “Z-027” for “Z-024”, “to” for “to pig gut”, “ERS12561826” for “ERS12561823”; settings: 2 µM
[19] = as §1, with “Z-026” for “Z-024”, “to” for “to pig gut”, “ERS12561825” for “ERS12561823”; settings: 2 µM
[20] = as §1, with “Z-022” for “Z-024”, “mouse” for “pig”, “ERS12561821” for “ERS12561823”; settings: 2 µM
Further: call rule not given here.

SMILES	Bacterial Biotransformation [1]	Bacterial Biotransformation [2]	Bacterial Biotransformation [3]	Bacterial Biotransformation [4]	Bacterial Biotransformation [5]	Bacterial Biotransformation [6]	Bacterial Biotransformation [7]	Bacterial Biotransformation [8]	Bacterial Biotransformation [9]	Bacterial Biotransformation [10]	Bacterial Biotransformation [11]	Bacterial Biotransformation [12]	Bacterial Biotransformation [13]	Bacterial Biotransformation [14]	Bacterial Biotransformation [15]	Bacterial Biotransformation [16]	Bacterial Biotransformation [17]	Bacterial Biotransformation [18]	Bacterial Biotransformation [19]	Bacterial Biotransformation [20]
CCC1(c2ccc(N)cc2)CCC(=O)NC1=O (centres undefined) [AMINOGLUTETHIMIDE]	Compound metabolized	Compound metabolized	Compound NOT metabolized	Compound NOT metabolized	Compound NOT metabolized	Compound NOT metabolized	Compound NOT metabolized	Compound NOT metabolized	Compound NOT metabolized	Compound NOT metabolized	Compound NOT metabolized	Compound NOT metabolized	Compound NOT metabolized	Compound NOT metabolized	Compound NOT metabolized	Compound NOT metabolized	Compound NOT metabolized			
CN1CCc2cccc3c2[C@H]1Cc1ccc(O)c(O)c1-3 [APOMORPHINE]	Compound metabolized	Compound metabolized			Compound NOT metabolized		Compound NOT metabolized	Compound NOT metabolized	Compound NOT metabolized	Compound NOT metabolized	Compound NOT metabolized	Compound NOT metabolized	Compound NOT metabolized	Compound NOT metabolized	Compound NOT metabolized	Compound NOT metabolized	Compound NOT metabolized	Compound NOT metabolized	Compound NOT metabolized	Compound NOT metabolized
C[C@@H]1CC[C@H]2[C@@H](C)C(=O)O[C@@H]3O[C@@]4(C)CC[C@@H]1[C@]32OO4 [ARTEMISININ]	Compound metabolized				Compound metabolized	Compound metabolized	Compound metabolized	Compound metabolized	Compound metabolized			Compound metabolized	Compound metabolized	Compound metabolized	Compound metabolized	Compound metabolized	Compound NOT metabolized	Compound metabolized	Compound metabolized	Compound metabolized
CC(C)c1c(C(=O)Nc2ccccc2)c(-c2ccccc2)c(-c2ccc(F)cc2)n1CC[C@@H](O)C[C@@H](O)CC(=O)O [ATORVASTATIN]	Compound NOT metabolized	Compound NOT metabolized	Compound metabolized	Compound NOT metabolized	Compound metabolized	Compound metabolized	Compound metabolized		Compound metabolized	Compound NOT metabolized	Compound metabolized	Compound metabolized	Compound metabolized	Compound metabolized	Compound NOT metabolized	Compound metabolized	Compound NOT metabolized	Compound NOT metabolized	Compound NOT metabolized	Compound NOT metabolized
CC(=O)O[C@]1(C(C)=O)CC[C@H]2[C@@H]3C=C(Cl)C4=CC(=O)[C@@H]5C[C@@H]5[C@]4(C)[C@H]3CC[C@@]21C [CYPROTERONE ACETATE]		Compound metabolized	Compound metabolized		Compound metabolized	Compound NOT metabolized	Compound metabolized	Compound metabolized	Compound metabolized	Compound metabolized	Compound metabolized	Compound metabolized	Compound metabolized	Compound metabolized	Compound metabolized	Compound metabolized	Compound metabolized			
COc1c2occc2cc2ccc(=O)oc12 [METHOXSALEN]	Compound metabolized	Compound metabolized	Compound metabolized	Compound metabolized	Compound metabolized		Compound metabolized	Compound metabolized			Compound metabolized		Compound metabolized	Compound metabolized	Compound metabolized	Compound metabolized	Compound metabolized	Compound metabolized	Compound metabolized	Compound NOT metabolized
COc1ccccc1N1CCN(CC(O)COc2cccc3ccccc23)CC1 (centres undefined) [NAFTOPIDIL]	Compound metabolized	Compound NOT metabolized	Compound NOT metabolized	Compound NOT metabolized	Compound NOT metabolized	Compound NOT metabolized	Compound NOT metabolized	Compound NOT metabolized	Compound NOT metabolized	Compound NOT metabolized	Compound NOT metabolized	Compound NOT metabolized	Compound NOT metabolized	Compound NOT metabolized	Compound NOT metabolized	Compound NOT metabolized	Compound NOT metabolized			Compound metabolized
Cc1nc2n(c(=O)c1CCN1CCC(c3noc4cc(F)ccc34)CC1)CCCC2O (centres undefined) [PALIPERIDONE]	Compound metabolized	Compound metabolized	Compound NOT metabolized		Compound metabolized		Compound metabolized	Compound metabolized	Compound metabolized	Compound metabolized	Compound metabolized	Compound metabolized	Compound metabolized	Compound metabolized	Compound metabolized	Compound metabolized	Compound NOT metabolized	Compound NOT metabolized	Compound NOT metabolized	Compound NOT metabolized
CN(C)CCc1c[nH]c2ccc(Cn3cncn3)cc12.O=C(O)c1ccccc1 [RIZATRIPTAN BENZOATE]	Compound NOT metabolized	Compound NOT metabolized	Compound NOT metabolized	Compound NOT metabolized	Compound NOT metabolized		Compound NOT metabolized	Compound NOT metabolized	Compound NOT metabolized	Compound NOT metabolized	Compound NOT metabolized	Compound NOT metabolized	Compound NOT metabolized	Compound NOT metabolized	Compound NOT metabolized	Compound NOT metabolized	Compound NOT metabolized	Compound NOT metabolized	Compound NOT metabolized	Compound NOT metabolized
